In patent US6849435B2, “Use of VLCFAE for identifying herbicidally active compounds” (Bayer Aktiengesellschaft, priority 2000, dated 2005):
Entries after “also recorded” stand apart in the source; their conditions may differ.

Assays:
[1] = test system: C18:1 fatty acid elongation; settings: cited from earlier work
[2] = test system: Arabidopsis thaliana; experiment: Herbicide treatment of Arabidopsis thaliana with flufenacet: generation of the fiddlehead phenotype; type: in vivo, Arabidopsis thaliana (ecotype Columbia Col-0)
Procedure: Herbicide Treatment of Arabidopsis thaliana With Flufenacet: Generation of the Fiddlehead Phenotype Arabidopsis seeds (ecotype Columbia Col-0), which were stored at 4° C., were sown in soil and cultivated at 22° C.±2° C. under long-day conditions (16 h light/8h dark). Plants 2 weeks old were sprayed with 250 g/ha and 50 g/ha flufenacet and cultivated further at 22° C.±2° C. under long-day conditions (16 h light/8h dark). […] These fusions are very similar to those in the “fiddlehead” mutants.

CN(C)c1cnn(-c2ccccc2)c(=O)c1Cl [BAS 13-338]
inhibition of C18:1 fatty acid elongation [1]: inhibit C18:1 fatty acid elongation

CC(C)N(C(=O)COc1nnc(C(F)(F)F)s1)c1ccc(F)cc1 [flufenacet]
appearance of flowers after recovery ([2]; from day 18 after treatment with 250 g/ha and 50 g/ha): all the flowers appear normal again
fusion of the rosette leaves ([2]; in vivo): leads to fusion of the rosette leaves
fiddlehead phenotype (fusion of flower organs) ([2]; plants 2 weeks old sprayed with 250 g/ha and 50 g/ha, between day 7 and day 11 after treatment): fiddlehead phenotype can be induced; also recorded: the flower organs fuse with the uppermost cauline leaves
